In US11465978B2, “Anthranilic amides and the use thereof” (THE ADMINISTRATORS OF THE TULANE EDUCATIONAL FUND, priority 2013, dated 2022):

Tests used:
pERK5 = assay: Western blot, inhibition of EGF-mediated formation of pERK5 in MDA-MB-231 cells; assay type: cell-based
Procedure: FIG. 9 is a set of bar graphs showing a Western blot analysis of potential MEK5 inhibitors. The MDA-MB-231 triple negative breast cancer cell line was pretreated with compounds (10 μM) for 30 minutes followed by stimulation with epidermal growth factor (EGF, 50 ng/mL) for 15 minutes. Vehicle-treated cells were pretreated with DMSO for 30 minutes prior to EGF stimulation for 15 minutes. Protein visualization and quantification analysis were performed using LI-COR Odyssey Imager. * P<0.05 vs. Vehicle, one-way ANOVA followed by Tukey-Kramer test (n=3).
A number of compounds were tested for their potential as MEK5 inhibitors. The MDA-MB-231 triple negative breast cancer cell line was pretreated with 10 μM of compounds 24, 9b, 9a, 9c, 9e, 9f, 9d, 9h, 23, 7, and 15 for 30 minutes followed by stimulation with epidermal growth factor (EGF, 50 ng/mL) for 15 minutes. Vehicle-treated cells and known MEK1/2 inhibitor cells were pretreated with DMSO and U0126 respectively for 30 minutes prior to EGF stimulation for 15 minutes. Protein visualization and quantification analysis was performed using LI-COR Odyssey Imager. The results of the Western blot analysis are shown in FIG. 9. * P<0.05 vs. Vehicle, one-way ANOVA followed by Tukey-Kramer test (n=3).
MDA-MB-231 cells were grown on 10 cm cell culture plates [Sarstedt] in Dulbecco's Modified Eagle's Medium (DMEM; Gibco) with Ham's F12 Nutrient Mixture (1:1) (Invitrogen), 10% heat-inactivated FBS [Atlanta Biological and 0.5% penicillin/streptomycin [Gibco]. Cells were maintained at 37° C. with 5% CO2. Plating of the cells was done 36 hours before treatment in 35 mm culture plates [Sarstedt] and allowed to reach confluence. To test MEK-5 inhibitors, the cells were treated with epidermal growth factor (EGF; Sigma-Aldrich) 30 min after treatment with the compounds. 15 min after the addition of EGF, the cells were washed with 1×PBS [Sigma-Aldrich] and then lysed in 1% Triton X-100 buffer containing 20 mM Tris (pH 6.8), 137 mM NaCl, 25 mM beta glycerophosphate, 2 mM NaPPi, 2 mM EDTA, 1 mM Na3VO4, 10% glycerol, 5 μg/mL leupeptin, 5 μg/mL aprotinin, 2 mM benzamidine, 0.5 mM DTT, and 1 mM PMSF. The lysates were then centrifuged at 10,000 rpm for 10 min at 4° C.
Total protein content was assessed by Bradford Bio-Rad protein assay (Cat. No. 500-0006, Bio-Rad, Hercules, Calif.) and 30 μg of protein was loaded on a 8% SDS-PAGE gel for phosphorylated and total ERK1/2 and ERK5 proteins. After running the samples, gels were transferred to a nitrocellulose membrane (Cat. No. 926-31092, Licor Biosciences, Lincoln, Nebr.). After transfer, membranes were washed for 5 min with 1×PBS and blocked for 1 h in a Casein Blocking Buffer (Cat. No. 927-40200, Licor Biosciences) at room temperature. Membranes were then incubated overnight at 4° C. in primary antibody in CBB with 0.2% Tween-20. Antibodies included rabbit anti-phospho-ERK1/2 (Dilution—1:1000, Cat. No. 9101, Cell Signaling, Beverly, Mass.), mouse anti-total ERK1/2 (Dilution—1:1000, Cat. No. 9107, Cell Signaling), and rabbit anti-total ERK5 (Dilution—1:1,000, Cat. No. 3372, Cell Signaling). Mouse anti-α-Tubulin (Dilution—1:10,000, Cat. No. T5168, Sigma-Aldrich) was used as a loading control. After incubation with primary antibody, blots were washed in 1×PBS solution with 0.2% Tween-20 (1×PBS-T) and incubated with goat anti-rabbit (Dilution—1:10,000, Cat. No. 926-68021, LICOR Biosciences) and goat anti-mouse (Dilution—1:10,000, Cat. No. 926-32210, LICOR Biosciences) secondary antibodies for 1 h at room temperature. After washing the membranes with 1×PBS-T, the protein bands were visualized on an Odyssey Infrared Imager and quantified with Odyssey software (LICOR Biosciences).

MDA-MB 231 cells = assay: Morphology (mesenchymal to epithelial phenotype) during proliferation testing; assay type: cell-based
Procedure: Proliferation studies were conducted using MDA-MB 231 cells, as they express the triple negative cancer phenotype. Compound 3 was selected due to its potency in inhibition of both MEK1/2 and MEK5. MDA-MB 231 cells were plated at 10,000 cells per well in a 96 well TC plate in 5% Charcoal-Dextran stripped media and incubated overnight at 37° C. in 5% CO2. The cells were treated with drug or vehicle the following day. Plates were harvested on days 3, 5 and 7 and stained with Crystal Violet. […] The cells were washed, lysed, and the absorbance of Crystal Violet sequestered in living cells was determined at […]. Wells were conducted in duplicate. Experiments were run in triplicate. Cells were normalized to initial cell count.
Examination of the MDA-MB 231 cells during the proliferation testing period was conducted. Untreated (DMSO) cells retained an elongated spiky cellular morphology characteristic of the mobile and invasive mesenchymal phenotype. […] The observed phenotypic conversion persisted for 14 days without reversion back to the mesenchymal phenotype, see FIG. 12.

MDA-MB-231 xenograft = assay: Animal xenograft study, tumor volume; assay type: in vivo, SCID/beige female mice; settings: SCID female mice, 1×10^6 MDA-MB231 cells bilaterally, 25 mg/kg on day 0, 30 days
Procedure: End point tumor volume for SCID female mice injected bilaterally with 1×10^6 MDA-MB231 cells, n=10. Animals were treated on day 0 (cell injection day) with either DMSO or SC-1-151 (25 mg/kg). Tumor size was measured biweekly for 30 days using a digital caliper. Bars represent final average tumor volume±SEM.
Immune-compromised SCID/beige female mice (29-32 days old) were obtained from Charles River Laboratories (Wilmington, Mass.). The animals were allowed a period of adaptation in a sterile and pathogen-free environment with food and water ad libitum. Breast cancer cells MDA-MB-231 were grown in 5% FBS charcoal-stripped DMEM for five days then harvested. Viable cells were mixed with PBS and Matrigel Reduced Factors (BD Biosciences, San Jose, Calif.). Injections (1×10^6 cells/injection) were made bilaterally into the mammary fat pad on day 0 (May 7, 2013). All the procedures in animals were carried out under anesthesia using a mix of isoflurane and oxygen delivered by mask. Animals were treated on day 0 with either DMSO or SC-1-151 (25 mg/kg). Tumor size was measured biweekly for 30 days using a digital caliper. Tumor volume was calculated using the following formula: 4/3πLM^2, where L is the larger radius and M is the smaller radius. On day 31, tumors were excised and blocked in OCT compound. Mice were monitored daily to insure survival after the surgery. […]

## NC(=O)c1ccc(F)c(F)c1Nc1ccc(I)cc1F [Compound 3, 3,4-difluoro-2-((2-fluoro-4-iodophenyl)amino)benzamide]
pERK5; Example 3 table, DMSO = 0, MDA-MB-231, EGF stimulation
  pERK-5 decrease (%): 59%
pERK5; Homo sapiens, MDA-MB-231, Table 1, MDA-MB-231, compounds 10 μM 30 min, then EGF 50 ng/mL 15 min, read-out: cellular pERK5 decrease (%)
  inhibition at 10 µM: 56.5%
MDA-MB 231 cells
  conversion of mesenchymal to epithelial cellular morphology: more rounded cellular morphology
  persistence of phenotypic conversion without reversion to mesenchymal phenotype: 14 days
MDA-MB 231 cells; 10 μM
  conversion of cell phenotype: marked conversion of nearly all cells back to a more rounded phenotype
MDA-MB-231 xenograft
  tumorigenesis in vivo (end point tumor volume): decreases tumorigenesis
